Common to all, as to format: cell-based
In one test the target is T1, GLP-1R (Homo sapiens, UniProt P43220).
T1 construct: expressed in transfected cells; host or cells: CHO-K1
As to the kind of experiment: GLP-1 activity test (cAMP, chemiluminescence). The following applies: CHO-K1 cell line stably expressing GLP-1R; relative luminescence units; read-out: GLP-1 [EC50(pmol)]. On the procedure: (§1) Upon stimulation by a specific agonist, GLP-1R activates the intracellular adenylate cyclase signaling pathway, resulting in an increase in cAMP levels and ultimately leading to insulin production and secretion. A cell line stably transfected with GLP-1R was stimulated with test compounds, thereby rapidly increasing intracellular cAMP levels. The relative luminescence units (RLU) of cells stimulated at various concentrations were measured by a chemiluminescence method, and the EC50 value of the agonist was calculated accordingly. This activity test method is currently a commonly used method for evaluating GLP-1 receptor agonist activity both domestically and internationally. A CHO-K1 cell line stably expressing GLP-1R was used. The stable cells were stimulated with agonists at different concentrations, and the relative luminescence units after stimulation at each concentration were measured to calculate the EC50 value of the agonist.

The next test has as its target T2, GCG-R (Homo sapiens, UniProt P47871).
T2 construct: expressed in transfected cells; host or cells: CHO-K1
Kind of test: GCG activity test (cAMP, chemiluminescence). The following applies: CHO-K1 cell line stably expressing GCG-R; relative luminescence units; read-out: GCG [EC50(pmol)]. On the procedure: as §1, with “agonist, GCG-R” for “agonist, GLP-1R”, “with GCG-R” for “with GLP-1R”, “activity assay” for “activity test”, “evaluating GCG” for “evaluating GLP-1”, “expressing GCG-R” for “expressing GLP-1R”

A further test addresses T3, GIPR (Homo sapiens, UniProt P48546).
T3 construct: expressed in transfected cells; host or cells: CHO-K1
T3 sequence (P48546 22-466): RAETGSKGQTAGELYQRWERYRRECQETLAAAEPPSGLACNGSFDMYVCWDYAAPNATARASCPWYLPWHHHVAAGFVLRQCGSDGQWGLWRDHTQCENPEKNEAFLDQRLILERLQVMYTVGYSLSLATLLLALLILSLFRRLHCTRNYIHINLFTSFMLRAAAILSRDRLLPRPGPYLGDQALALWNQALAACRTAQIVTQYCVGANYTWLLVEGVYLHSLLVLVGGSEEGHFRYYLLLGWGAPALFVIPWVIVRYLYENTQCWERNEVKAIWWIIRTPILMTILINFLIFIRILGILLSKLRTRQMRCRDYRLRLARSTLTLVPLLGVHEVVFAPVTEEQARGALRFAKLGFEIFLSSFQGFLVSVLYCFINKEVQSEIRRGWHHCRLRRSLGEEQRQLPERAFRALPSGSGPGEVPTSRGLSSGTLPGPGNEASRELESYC
As to the kind of experiment: GIP activity test (cAMP, chemiluminescence). The following applies: CHO-K1 cell line stably expressing GIPR; relative luminescence units; read-out: GIP [EC50(pmol)]. The protocol:
as §1, with “agonist, GIPR” for “agonist, GLP-1R”, “with GIPR” for “with GLP-1R”, “activity assay” for “activity test”, “evaluating GIP” for “evaluating GLP-1”, “expressing GIPR” for “expressing GLP-1R”

The values below come from EP4806911A1, “TRIPLE AGONIST COMPOUND” (Chengdu Aoda Biotechnology Co., Ltd, priority 2023, dated 2025).

T1 sequence (P43220 24-463, species assumed): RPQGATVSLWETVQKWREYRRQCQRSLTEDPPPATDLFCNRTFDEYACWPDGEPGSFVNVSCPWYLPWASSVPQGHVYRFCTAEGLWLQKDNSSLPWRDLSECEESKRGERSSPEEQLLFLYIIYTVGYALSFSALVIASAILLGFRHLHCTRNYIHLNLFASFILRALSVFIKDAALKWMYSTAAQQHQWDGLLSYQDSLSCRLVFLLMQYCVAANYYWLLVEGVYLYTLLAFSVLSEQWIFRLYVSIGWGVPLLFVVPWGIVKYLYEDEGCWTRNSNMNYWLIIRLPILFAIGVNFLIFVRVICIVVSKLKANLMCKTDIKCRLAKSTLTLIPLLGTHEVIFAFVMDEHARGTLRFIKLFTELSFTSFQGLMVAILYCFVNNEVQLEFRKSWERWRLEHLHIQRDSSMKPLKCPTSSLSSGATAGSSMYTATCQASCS
T2 sequence (P47871 26-477, species assumed): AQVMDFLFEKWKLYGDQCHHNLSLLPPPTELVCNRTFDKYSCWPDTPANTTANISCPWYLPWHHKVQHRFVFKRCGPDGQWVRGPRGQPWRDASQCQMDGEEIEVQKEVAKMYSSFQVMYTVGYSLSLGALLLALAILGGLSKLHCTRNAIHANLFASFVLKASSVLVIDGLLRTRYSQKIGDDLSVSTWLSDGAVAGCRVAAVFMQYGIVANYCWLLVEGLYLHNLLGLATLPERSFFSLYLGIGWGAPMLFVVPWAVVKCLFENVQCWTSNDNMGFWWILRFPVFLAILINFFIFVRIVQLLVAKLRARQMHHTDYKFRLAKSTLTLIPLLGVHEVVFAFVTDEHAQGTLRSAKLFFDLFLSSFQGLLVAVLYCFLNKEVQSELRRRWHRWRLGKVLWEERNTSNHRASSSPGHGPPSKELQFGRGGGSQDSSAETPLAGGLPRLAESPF

Take `CC[C@H](C)[C@H](NC(=O)[C@H](Cc1ccccc1)NC(=O)[C@H](C)NC(=O)C(C)(C)NC(=O)[C@H](CCC(N)=O)NC(=O)[C@H](C)NC(=O)[C@H](CCCCNC(=O)COCCOCCNC(=O)CC[C@H](NC(=O)CCCCCCCCCCCCCCCCCCC(=O)O)C(=O)O)NC(=O)[C@H](CCCCN)NC(=O)[C@H](CC(=O)O)NC(=O)[C@H](CC(C)C)NC(=O)C(C)(CC(C)C)NC(=O)[C@@H](NC(=O)[C@H](CO)NC(=O)[C@H](Cc1ccc(O)cc1)NC(=O)[C@H](CC(=O)O)NC(=O)[C@H](CO)NC(=O)[C@@H](NC(=O)C(C)(Cc1ccccc1)NC(=O)[C@@H](NC(=O)CNC(=O)[C@H](CCC(N)=O)NC(=O)C(C)(C)NC(=O)[C@@H](N)Cc1ccc(O)cc1)[C@@H](C)O)[C@@H](C)O)[C@@H](C)CC)C(=O)N[C@@H](CCC(=O)O)C(=O)N[C@@H](Cc1ccc(O)cc1)C(=O)N[C@@H](CC(C)C)C(=O)N[C@@H](CC(C)C)C(=O)N[C@@H](CCC(=O)O)C(=O)NCC(=O)NCC(=O)N1CCC[C@H]1C(=O)N[C@@H](CO)C(=O)N[C@@H](CO)C(=O)NCC(=O)N[C@@H](C)C(=O)N1CCC[C@H]1C(=O)N1CCC[C@H]1C(=O)N1CCC[C@H]1C(=O)N[C@@H](CO)C(N)=O` (stereo partly drawn) [Compound 1]: the results for the EC50 at GLP-1R, at GCG-R and on GIPR were 0.0502 nM, 0.171 nM and 0.0226 nM, respectively.

On to `CC[C@H](C)[C@H](NC(=O)[C@H](Cc1ccccc1)NC(=O)[C@H](C)NC(=O)C(C)(C)NC(=O)[C@H](CCC(N)=O)NC(=O)[C@H](C)NC(=O)[C@H](CCCCNC(=O)COCCOCCNC(=O)CC[C@H](NC(=O)CCCCCCCCCCCCCCCCCCC(=O)O)C(=O)O)NC(=O)[C@H](CCCCN)NC(=O)[C@H](CC(=O)O)NC(=O)[C@H](CC(C)C)NC(=O)C(C)(CC(C)C)NC(=O)[C@@H](NC(=O)[C@H](CO)NC(=O)[C@H](Cc1ccc(O)cc1)NC(=O)[C@H](CC(=O)O)NC(=O)[C@H](CO)NC(=O)[C@@H](NC(=O)C(C)(Cc1ccccc1F)NC(=O)[C@@H](NC(=O)CNC(=O)[C@H](CCC(N)=O)NC(=O)C(C)(C)NC(=O)[C@@H](N)Cc1ccc(O)cc1)[C@@H](C)O)[C@@H](C)O)[C@@H](C)CC)C(=O)N[C@@H](CCC(=O)O)C(=O)N[C@@H](Cc1ccc(O)cc1)C(=O)N[C@@H](CC(C)C)C(=O)N[C@@H](CC(C)C)C(=O)N[C@@H](CCC(=O)O)C(=O)NCC(=O)NCC(=O)N1CCC[C@H]1C(=O)N[C@@H](CO)C(=O)N[C@@H](CO)C(=O)NCC(=O)N[C@@H](C)C(=O)N1CCC[C@H]1C(=O)N1CCC[C@H]1C(=O)N1CCC[C@H]1C(=O)N[C@@H](CO)C(N)=O` (stereo partly drawn) [Compound 5], for which the values for the EC50 on GLP-1R, on GCG-R and on GIPR were 0.0454 nM, 0.138 nM and 0.0205 nM, respectively.

On to `CC[C@H](C)[C@H](NC(=O)[C@H](Cc1ccccc1)NC(=O)[C@H](C)NC(=O)C(C)(C)NC(=O)[C@H](CCC(N)=O)NC(=O)[C@H](C)NC(=O)[C@H](CCCCNC(=O)COCCOCCNC(=O)COCCOCCNC(=O)CC[C@H](NC(=O)CCCCCCCCCCCCCCCCCCC(=O)O)C(=O)O)NC(=O)[C@H](CCCCN)NC(=O)[C@H](CC(=O)O)NC(=O)[C@H](CC(C)C)NC(=O)C(C)(CC(C)C)NC(=O)[C@@H](NC(=O)[C@H](CO)NC(=O)[C@H](Cc1ccc(O)cc1)NC(=O)[C@H](CC(=O)O)NC(=O)[C@H](CO)NC(=O)[C@@H](NC(=O)C(C)(Cc1ccccc1)NC(=O)[C@@H](NC(=O)CNC(=O)[C@H](CCC(N)=O)NC(=O)C(C)(C)NC(=O)[C@@H](N)Cc1ccc(O)cc1)[C@@H](C)O)[C@@H](C)O)[C@@H](C)CC)C(=O)N[C@@H](CCC(=O)O)C(=O)N[C@@H](Cc1ccc(O)cc1)C(=O)N[C@@H](CC(C)C)C(=O)N[C@@H](CC(C)C)C(=O)N[C@@H](CCC(=O)O)C(=O)NCC(=O)NCC(=O)N1CCC[C@H]1C(=O)N[C@@H](CO)C(=O)N[C@@H](CO)C(=O)NCC(=O)N[C@@H](C)C(=O)N1CCC[C@H]1C(=O)N1CCC[C@H]1C(=O)N1CCC[C@H]1C(=O)N[C@@H](CO)C(N)=O` (stereo partly drawn) [Compound 9], for which the figures for the EC50 at GLP-1R, at GCG-R and on GIPR were 0.0612 nM, 0.186 nM and 0.0285 nM, respectively.

For `CC[C@H](C)[C@H](NC(=O)[C@H](Cc1ccccc1)NC(=O)[C@H](C)NC(=O)C(C)(C)NC(=O)[C@H](CCC(N)=O)NC(=O)[C@H](C)NC(=O)[C@H](CCCCNC(=O)COCCOCCNC(=O)COCCOCCNC(=O)CC[C@H](NC(=O)CCCCCCCCCCCCCCCCCCC(=O)O)C(=O)O)NC(=O)[C@H](CCCCN)NC(=O)[C@H](CC(=O)O)NC(=O)[C@H](CC(C)C)NC(=O)C(C)(CC(C)C)NC(=O)[C@@H](NC(=O)[C@H](CO)NC(=O)[C@H](Cc1ccc(O)cc1)NC(=O)[C@H](CC(=O)O)NC(=O)[C@H](CO)NC(=O)[C@@H](NC(=O)C(C)(Cc1ccccc1F)NC(=O)[C@@H](NC(=O)CNC(=O)[C@H](CCC(N)=O)NC(=O)C(C)(C)NC(=O)[C@@H](N)Cc1ccc(O)cc1)[C@@H](C)O)[C@@H](C)O)[C@@H](C)CC)C(=O)N[C@@H](CCC(=O)O)C(=O)N[C@@H](Cc1ccc(O)cc1)C(=O)N[C@@H](CC(C)C)C(=O)N[C@@H](CC(C)C)C(=O)N[C@@H](CCC(=O)O)C(=O)NCC(=O)NCC(=O)N1CCC[C@H]1C(=O)N[C@@H](CO)C(=O)N[C@@H](CO)C(=O)NCC(=O)N[C@@H](C)C(=O)N1CCC[C@H]1C(=O)N1CCC[C@H]1C(=O)N1CCC[C@H]1C(=O)N[C@@H](CO)C(N)=O` (stereo partly drawn) [Compound 11], the EC50 on GLP-1R was 0.0536 nM; on GCG-R it was 0.166 nM; on GIPR, 0.027 nM.

On to `CC[C@H](C)[C@H](NC(=O)[C@H](Cc1ccccc1)NC(=O)[C@H](C)NC(=O)C(C)(C)NC(=O)[C@H](CCC(N)=O)NC(=O)[C@H](C)NC(=O)[C@H](CCCCNC(=O)COCCOCCNC(=O)CC[C@H](NC(=O)CCCCCCCCCCCCCCCCCCC(=O)O)C(=O)O)NC(=O)[C@H](CCCCN)NC(=O)[C@H](CC(=O)O)NC(=O)[C@H](CC(C)C)NC(=O)[C@](C)(CC(C)C)NC(=O)[C@@H](NC(=O)[C@H](CO)NC(=O)[C@H](Cc1ccc(O)cc1)NC(=O)[C@H](CC(=O)O)NC(=O)[C@H](CO)NC(=O)[C@@H](NC(=O)[C@H](Cc1ccccc1)NC(=O)[C@@H](NC(=O)CNC(=O)[C@H](CCC(N)=O)NC(=O)C(C)(C)NC(=O)[C@@H](N)Cc1ccc(O)cc1)[C@@H](C)O)[C@@H](C)O)[C@@H](C)CC)C(=O)N[C@@H](CCC(=O)O)C(=O)N[C@@H](Cc1ccc(O)cc1)C(=O)N[C@@H](CC(C)C)C(=O)N[C@@H](CC(C)C)C(=O)N[C@@H](CCC(=O)O)C(=O)NCC(=O)NCC(=O)N1CCC[C@H]1C(=O)N[C@@H](CO)C(=O)N[C@@H](CO)C(=O)NCC(=O)N[C@@H](C)C(=O)N1CCC[C@H]1C(=O)N1CCC[C@H]1C(=O)N1CCC[C@H]1C(=O)N[C@@H](CO)C(N)=O` [retatrutide, Retatrutide, reference compound], for which the EC50 worked out at 0.046 nM on GLP-1R, 0.523 nM at GCG-R and 0.0342 nM at GIPR.
